# Results from article PMC10938783, “A novel pan-PI3K inhibitor KTC1101 synergizes with anti-PD-1 therapy by targeting tumor suppression and immune activation” (Molecular Cancer, 2024).
# Test system: B16 cells gene expression
# Test: RNA-Seq (DEGs, GSEA, heatmaps) of B16 cells
# Conditions: for NES / enrichmentScore: KTC 0.2μM
# [1] = B16 cells, GSEA gene set HALLMARK_ADIPOGENESIS
# [2] = B16 cells, GSEA gene set HALLMARK_ALLOGRAFT_REJECTION
# [3] = B16 cells, GSEA gene set HALLMARK_ANDROGEN_RESPONSE
# [4] = B16 cells, GSEA gene set HALLMARK_APICAL_JUNCTION
# [5] = B16 cells, GSEA gene set HALLMARK_APICAL_SURFACE
# [6] = B16 cells, GSEA gene set HALLMARK_APOPTOSIS
# [7] = B16 cells, GSEA gene set HALLMARK_BILE_ACID_METABOLISM
# [8] = B16 cells, GSEA gene set HALLMARK_CHOLESTEROL_HOMEOSTASIS
# [9] = B16 cells, GSEA gene set HALLMARK_COAGULATION
# [10] = B16 cells, GSEA gene set HALLMARK_COMPLEMENT
# [11] = B16 cells, GSEA gene set HALLMARK_DNA_REPAIR
# [12] = B16 cells, GSEA gene set HALLMARK_E2F_TARGETS
# [13] = B16 cells, GSEA gene set HALLMARK_EPITHELIAL_MESENCHYMAL_TRANSITION
# [14] = B16 cells, GSEA gene set HALLMARK_ESTROGEN_RESPONSE_EARLY
# [15] = B16 cells, GSEA gene set HALLMARK_ESTROGEN_RESPONSE_LATE
# [16] = B16 cells, GSEA gene set HALLMARK_FATTY_ACID_METABOLISM
# [17] = B16 cells, GSEA gene set HALLMARK_G2M_CHECKPOINT
# [18] = B16 cells, GSEA gene set HALLMARK_GLYCOLYSIS
# [19] = B16 cells, GSEA gene set HALLMARK_HEDGEHOG_SIGNALING
# [20] = B16 cells, GSEA gene set HALLMARK_HEME_METABOLISM
# [21] = B16 cells, GSEA gene set HALLMARK_HYPOXIA
# [22] = B16 cells, GSEA gene set HALLMARK_IL2_STAT5_SIGNALING
# [23] = B16 cells, GSEA gene set HALLMARK_IL6_JAK_STAT3_SIGNALING
# [24] = B16 cells, GSEA gene set HALLMARK_INFLAMMATORY_RESPONSE
# [25] = B16 cells, GSEA gene set HALLMARK_INTERFERON_ALPHA_RESPONSE
# [26] = B16 cells, GSEA gene set HALLMARK_INTERFERON_GAMMA_RESPONSE
# [27] = B16 cells, GSEA gene set HALLMARK_KRAS_SIGNALING_DN
# [28] = B16 cells, GSEA gene set HALLMARK_KRAS_SIGNALING_UP
# [29] = B16 cells, GSEA gene set HALLMARK_MITOTIC_SPINDLE
# [30] = B16 cells, GSEA gene set HALLMARK_MTORC1_SIGNALING
# [31] = B16 cells, GSEA gene set HALLMARK_MYC_TARGETS_V1
# [32] = B16 cells, GSEA gene set HALLMARK_MYC_TARGETS_V2
# [33] = B16 cells, GSEA gene set HALLMARK_MYOGENESIS
# [34] = B16 cells, GSEA gene set HALLMARK_NOTCH_SIGNALING
# [35] = B16 cells, GSEA gene set HALLMARK_OXIDATIVE_PHOSPHORYLATION
# [36] = B16 cells, GSEA gene set HALLMARK_P53_PATHWAY
structure (smiles),measurement,setting,value
"COc1cc(N)cc2c1nc(C(F)F)n2-c1nc(N2CCCOCC2)nc(N2CCOCC2)n1 [KTC1101, 2-(difluoromethyl)-4-methoxy-1-(4-morpholino-6-(1,4-oxazepan-4-yl)-1,3,5-triazin-2-yl)-1H-benzo[d]imidazol-6-amine]","NES, mmu05152 Tuberculosis",,-0.8664
same,"NES, mmu05164 Influenza A",,0.7158
same,"NES, mmu05169 Epstein-Barr virus infection",,0.9901
same,"enrichmentScore, mmu05152 Tuberculosis",,-0.1994
same,"enrichmentScore, mmu05164 Influenza A",,0.2008
same,"enrichmentScore, mmu05169 Epstein-Barr virus infection",,0.2613
same,"immune pathways TNFα signaling via NF-κB, inflammatory response, chemokine signaling, cytokine-cytokine receptor interaction, IL-2-STAT5 (GSEA)","B16 cells, 0.04 and 0.2 μM, 48 h",significantly upregulated at both tested concentrations
same,NES,[1],-1.91
same,enrichmentScore,[1],-0.3889
same,NES,[2],1.691
same,enrichmentScore,[2],0.4865
same,NES,[3],0.8627
same,enrichmentScore,[3],0.2417
same,NES,[4],1.3836
same,enrichmentScore,[4],0.3738
same,NES,[5],-2.057
same,enrichmentScore,[5],-0.6354
same,NES,[6],0.9502
same,enrichmentScore,[6],0.2533
same,NES,[7],-0.7889
same,enrichmentScore,[7],-0.209
same,NES,[8],-2.882
same,enrichmentScore,[8],-0.7203
same,NES,[9],2.055
same,enrichmentScore,[9],0.594
same,NES,[10],1.839
same,enrichmentScore,[10],0.5017
same,NES,[11],-0.6206
same,enrichmentScore,[11],-0.1386
same,NES,[12],-2.092
same,enrichmentScore,[12],-0.4182
same,NES,[13],1.653
same,enrichmentScore,[13],0.443
same,NES,[14],1.194
same,enrichmentScore,[14],0.32
same,NES,[15],-1.354
same,enrichmentScore,[15],-0.2968
same,NES,[16],-1.5293
same,enrichmentScore,[16],-0.3352
same,NES,[17],-1.723
same,enrichmentScore,[17],-0.3452
same,NES,[18],-3.021
same,enrichmentScore,[18],-0.6285
same,NES,[19],-1.553
same,enrichmentScore,[19],-0.4866
same,NES,[20],-0.8539
same,enrichmentScore,[20],-0.1842
same,NES,[21],-1.667
same,enrichmentScore,[21],-0.3411
same,NES,[22],1.6961
same,enrichmentScore,[22],0.4531
same,NES,[23],1.437
same,enrichmentScore,[23],0.4564
same,NES,[24],1.614
same,enrichmentScore,[24],0.4471
same,NES,[25],-0.8696
same,enrichmentScore,[25],-0.2269
same,NES,[26],1.08
same,enrichmentScore,[26],0.2921
same,NES,[27],1.399
same,enrichmentScore,[27],0.4365
same,NES,[28],2.0673
same,enrichmentScore,[28],0.5585
same,NES,[29],-1.3285
same,enrichmentScore,[29],-0.2672
same,NES,[30],-3.5229
same,enrichmentScore,[30],-0.6921
same,NES,[31],-0.8926
same,enrichmentScore,[31],-0.1781
same,NES,[32],-0.5144
same,enrichmentScore,[32],-0.1367
same,NES,[33],1.795
same,enrichmentScore,[33],0.4818
same,NES,[34],1.2511
same,enrichmentScore,[34],0.4419
same,NES,[35],-2.275
same,enrichmentScore,[35],-0.46
same,NES,[36],-1.372
same,enrichmentScore,[36],-0.2855
same,NES,"B16 cells, GSEA gene set HALLMARK_PEROXISOME",-1.588
